Like-named read-outs stand apart in the source and are kept apart here.
How the values were obtained:
HIV-1 RT = target: T1, HIV-1 RT (Human immunodeficiency virus type 1 group M subtype B, UniProt P04585); assay: HIV-1 Reverse Transcriptase Assay (RNA-dependent DNA polymerase activity, SPA); format: biochemical
T1 construct: HIV-1 RT enzyme (final concentrations of 1-3 nM)
Experimental: HIV-1 Reverse Transcriptase Assay
RNA-dependent DNA polymerase activity was measured using a biotinylated primer oligonucleotide and tritiated dNTP substrate. Newly synthesized DNA was quantified by capturing the biotinylated primer molecules on streptavidin coated Scintillation Proximity Assay (SPA) beads (Amersham). The sequences of the polymerase assay substrate were: 18 nt DNA primer, 5′-Biotin/GTC CCT GTT CGG GCG CCA-3′; 47 nt RNA template, 5′-GGGUCUCUCUGGUUAGACCACUCUAGCAGUGGCGCCCGAACAGGGAC-3′. The biotinylated DNA primer was obtained from the Integrated DNA Technologies Inc. and the RNA template was synthesized by Dharmacon. The DNA polymerase assay (final volume 50 μl) contained 32 nM biotinylated DNA primer, 64 nM RNA substrate, dGTP, dCTP, dTTP (each at 5 μM), 103 nM [^3H]-dATP (specific activity=[…]), in 45 mM Tris-HCl, pH 8.0, 45 mM NaCl, 2.7 mM Mg(CH3COO)2, 0.045% Triton X-100 w/v, 0.9 mM EDTA. The reations contained 5 ul of serial compound dilutions in 100% DMSO for IC50 determination and the final concentrations of DMSO were 10%. Reactions were initiated by the addition of 30 μl of the HIV-1 RT enzyme (final concentrations of 1-3 nM). Protein concentrations were adjusted to provide linear product formation for at least 30 min of incubation. After incubation at 30° C. for 30 min, the reaction was quenched by addition of 50 μl of 200 mM EDTA (pH 8.0) and 2 mg/ml SA-PVT SPA beads (Amersham, RPNQ0009, reconstituted in 20 mM Tris-HCl, pH 8.0, 100 mM EDTA and 1% BSA). The beads were left to settle overnight and the SPA signals were counted in a 96-well top counter-NXT (Packard). IC50 values were obtained by sigmoidal regression analysis using GraphPad.

[1] = tested on: HXB2-strain of HIV-1 in MT4 cells; assay: Antiviral Assay (protection of HIV-1-infected MT4 cells from cell death, MTT); format: cell-based; conditions: Human immunodeficiency virus 1, 120 h, MT4 cells infected with HXB2-strain of HIV-1, 5 days
Experimental: Anti-HIV-1 antiviral activity was assessed using an adaptation of the method of Pauwels et al. (Pauwels et al., J Virol Methods 1988 20:309-321). The method is based on the ability of compounds to protect HIV-1-infected T lymphoblastoid cells (MT4 cells) from cell-death mediated by the infection. The endpoint of the assay was calculated as the concentration of compound at which the cell viability of the culture was preserved by 50% (‘50% inhibitory concentration’, IC50). The cell viability of a culture was determined by the uptake of soluble, yellow 3-[4,5-dimethylthiazol-2-yl]-2,5-diphenyltetrazolium bromide (MTT) and its reduction to a purple insoluble formazan salt. After solubilization, spectrophotometric methods were employed to measure the amount of formazan product. […]
A fresh solution of 5 mg/mL MTT was prepared in 0.01 M phosphate buffered saline, pH 7.2 and 20 microliters added to each culture. […] When the formazan deposit was fully solubilized by further mixing, the absorbance (OD) of the cultures was measured at 540 nm and 690 nm wavelength (690 nm readings were used as blanks for artifacts between wells). The percent protection for each treated culture was then calculated from the equation: […]

[2] = HIV-1 RT enzyme 1-3 nM, 30° C., 30 min, read-out: HIV-1 RT IC50

SMILES | melting point [°C] | IC50 (HIV-1 RT; [2]) [nM] | IC50 [1] [nM] | IC50 (HIV-1 RT) [nM]
N#Cc1cc(Cl)cc(Oc2c(Br)ccc(Cn3c(=O)[nH]c4ccccc43)c2F)c1 [Compound I-1, 3-[6-Bromo-2-fluoro-3-(2-oxo-2,3-dihydro-benzoimidazol-1-ylmethyl)-phenoxy]-5-chloro-benzonitrile] | 227 to 229 | 12.2 | – | –
N#Cc1cc(Cl)cc(Oc2c(Br)ccc(Cn3c(=O)[nH]c4ncccc43)c2F)c1 [Compound I-2, 3-[6-Bromo-2-fluoro-3-(2-oxo-2,3-dihydro-imidazo[4,5-b]pyridin-1-ylmethyl)-phenoxy]-5-chloro-benzonitrile] | 255.5 to 258.5 | 5.8 | – | –
N#Cc1cc(Cl)cc(Oc2c(Br)ccc(Cn3c(=O)[nH]c4c3ccc[n+]4[O-])c2F)c1 [Compound I-3] | 259 to 260 | 15.9 | – | –
N#Cc1cc(Cl)cc(Oc2c(Br)ccc(Cn3c(=O)[nH]c4cnccc43)c2F)c1 [Compound I-4, 3-[6-Bromo-2-fluoro-3-(2-oxo-2,3-dihydro-imidazo[4,5-c]pyridin-1-ylmethyl)-phenoxy]-5-chloro-benzonitrile] | 219 to 221.5 | – | 0.4 | 5
N#Cc1cc(Cl)cc(Oc2c(Br)ccc(Cn3c(=O)[nH]c4c[n+]([O-])ccc43)c2F)c1 [Compound I-5] | 226.8 to 229 | 492 | – | –
N#Cc1cc(Cl)cc(Oc2c(Cl)ccc(Cn3c(=O)[nH]c4cnccc43)c2F)c1 [Compound I-6, 3-Chloro-5-[6-chloro-2-fluoro-3-(2-oxo-2,3-dihydro-imidazo[4,5-c]pyridin-1-ylmethyl)-phenoxy]-benzonitrile] | 232 to 233 | 7 | – | –
N#Cc1cc(Cl)cc(Oc2c(Br)ccc(Cn3c(=O)[nH]c4nnccc43)c2F)c1 [Compound I-7, 3-[6-Bromo-2-fluoro-3-(6-oxo-6,7-dihydro-imidazo[4,5-c]pyridazin-5-ylmethyl)-phenoxy]-5-chloro-benzonitrile] | – | 5.1 | – | –
N#Cc1cc(Cl)cc(Oc2c(Br)ccc(Cn3cn[nH]c3=O)c2F)c1 [Compound I-8, 3-[6-Bromo-2-fluoro-3-(5-oxo-1,5-dihydro-[1,2,4]triazol-4-ylmethyl)-phenoxy]-5-chloro-benzonitrile] | 107 | 45.1 | – | –
CCc1n[nH]c(=O)n1Cc1ccc(Br)c(Oc2cc(Cl)cc(C#N)c2)c1F [Compound I-9, 3-[6-Bromo-3-(3-ethyl-5-oxo-1,5-dihydro-[1,2,4]triazol-4-ylmethyl)-2-fluoro-phenoxy]-5-chloro-benzonitrile] | 264 to 265 | 19.7 | – | –
Cc1n[nH]c(=O)n1Cc1ccc(Br)c(Oc2cc(Cl)cc(C#N)c2)c1F [Compound I-10, 3-[6-Bromo-2-fluoro-3-(3-methyl-5-oxo-1,5-dihydro-[1,2,4]triazol4-ylmethyl)-phenoxy]-5-chloro-benzonitrile] | 129.9 to 131 | 54.6 | – | –
N#Cc1cc(Cl)cc(Oc2c(Br)ccc(CNC(=O)Nc3ccccc3F)c2F)c1 [Compound I-11] | 215.5 to 215.8 | 33.1 | – | –
N#Cc1cc(Cl)cc(Oc2c(Br)ccc(COC(=O)Nc3ccc(Cl)cc3Cl)c2F)c1 [Compound I-12] | 138.3 to 139.9 | 68.2 | – | –

From patent US7947709B2, “Non-nucleoside reverse transcriptase inhibitors” (Roche Palo Alto LLC, priority 2007, dated 2011)
